Patent US20160263072A1, “MONOACYLGLYCEROLS AND FAT-SOLUBLE NUTRIENTS FOR USE IN THE TREATMENT OF MALABSORPTION HAVING A NON-MECHANICAL BASIS” (NESTEC S.A., priority 2013, published 2016)

Assays:
[1] = Lipid maldigestion or malabsorption rat model (XENICAL-induced): EPA level in red blood cell and tissue lipids; type: in vivo; conditions: rats
Method: The concept was tested in a lipid maldigestion or malabsorption rat model. The maldigestion or malabsorption condition was obtained using XENICAL® (ORLISTAT), a pancreatic and gastric lipases inhibitor (tetrahydrolipstatin; see FIG. 7). Rats were fed during 21 days with long-chain polyunsaturated fatty acid (LC-PUFA) supplements containing mainly eicosapentaenoic (EPA) acid. Fish oil was used as a source of triacylglycerols, and different EPA glycerides were evaluated. XENICAL® (ORLISTAT) was given at a level sufficient to decrease lipid absorption by 40%. A group receiving fish oil without XENICAL® (ORLISTAT) was used as a positive control. At different time intervals (D3, D7, […]), the fatty acid profiles of red blood cell and plasma lipids were determined. At the end of the experiment, the fatty acid profiles of different tissues were determined. The main objective was to follow the level of EPA in red blood cell and plasma lipids. The main comparison evaluated was the difference in EPA level between the group receiving EPA-containing sn-1(3) MAG in combination with XENICAL® (ORLISTAT) and the positive control group (fish oil+XENICAL® (ORLISTAT)).

[2] = Clinical study: delivery of EPA by sn-1(3) MAG vs fish oil (TAG) under XENICAL (ORLISTAT)-induced lipid maldigestion; type: in vivo, humans
Method: This clinical study compared the efficacy of sn-1(3) MAG and fish oil (TAG) in delivering EPA in humans under lipid maldigestion conditions induced by XENICAL® (ORLISTAT). The comparison was tested in volunteers having a BMI of 37-40 kg/m^2 and treated with ORLISTAT® to induce lipid maldigestion or not treated with XENICAL® (ORLISTAT). The primary objective was to assess accretion of EPA in erythrocytes over 21 days when consumed as fish oil (TAG) or sn-1(3) MAG. The secondary objectives were to assess accretion of EPA in plasma over 21 days and also to assess the pharmacokinetics of EPA after an acute dose either in the form of sn-1(3) MAG or TAG (AUC in chylomicrons over 10 hours postprandial).

Compound	EPA incorporation in red blood cells ([1]; day 7, fish oil + XENICAL vs fish oil without XENICAL)	incorporation of LC-PUFAs in tissue ([1]; conditions of lipid maldigestion or malabsorption)	chronic effect: accretion of EPA in erythrocytes after 21 days ([2]; humans, with XENICAL, vs fish oil and XENICAL, p=0.0001)	chronic effect: accretion of EPA in plasma after 21 days ([2]; humans, with XENICAL, vs fish oil and XENICAL, p=0.0003)	carrier for EPA compared with fish oil (TAG) ([2]; obese subjects treated with XENICAL)
CCCCCCCCCCC[C@@H](C[C@@H]1OC(=O)[C@H]1CCCCCC)OC(=O)[C@H](CC(C)C)NC=O [XENICAL® (ORLISTAT), tetrahydrolipstatin, reference compound]	decreases EPA incorporation in red blood cells	–	–	–	–
CC/C=C\C/C=C\C/C=C\C/C=C\C/C=C\CCCC(=O)OC[C@@H](O)CO [sn-1(3) MAG, 1,3 MAG-EPA]	–	improved	statistically significant	statistically significant	better carrier for EPA than fish oil
